From article PMC12564265, “Navigating the Deep Eutectic Solvent Landscape: Experimental and Machine Learning Solubility Explorations of Syringic, p-Coumaric, and Caffeic Acids” (International Journal of Molecular Sciences, 2025)
Values joined by “and” are separate entries in the source; they are usually repeats but may differ in a detail not shown here. Equal values may be shown once.

Legend:
[1] = Shake-flask solubility with spectrophotometric measurement in neat deep eutectic solvents; format: physicochemical
Experimental: (§1) In order to determine the solubility of the three studied phenolic acids in deep eutectic solvents, a very well-established shake-flask method coupled with spectrophotometric measurements was utilized. The initial procedure involved the preparation of various DESs, which was conducted by mixing their HBA and HBD counterparts in a glass vessel and heating the composition until the formation of a transparent, uniform liquid. […] For additional measurements, the DESs were mixed with water in varying proportions, creating aqueous DES systems. Saturated solutions of CAF, SYR, and COU were obtained by adding excess amounts of these compounds to test tubes containing either a neat deep eutectic solvent or its aqueous solution. Such samples were placed in the Orbital Shaker Incubator ES-20/60 from Biosan (Riga, Latvia) and heated for 24 h at 25 °C, 30 °C, 35 °C, and 40 °C (±0.1 °C) with simultaneous mixing at 60 rpm. Before measurements, the samples were filtered using a PTFE syringe filter from Qpore (Dallas, TX, USA) with a 0.22 μm pore size. In order to avoid possible precipitation of the saturated solutions at decreased temperatures, the test tubes, syringes, pipette tips, and filters were kept at a temperature identical to that of the samples. The spectrophotometric measurements required the preparation of calibration curves for the three APIs. This involved the preparation of a stock solution of each compound in methanol, which was later successfully diluted, and the obtained solutions of varying concentrations were measured using an A360 spectrophotometer from AOE Instruments (Shanghai, China). The wavelength range was set to 200-500 nm, and the resolution was 1 nm. The analytical wavelengths were determined to be 324 nm for caffeic acid, 273 nm for syringic acid, and 308 nm for p-coumaric acid. The final regression equations, obtained after averaging three distinct sets of measurements, are collected in Table 2 together with determination coefficients and limits of detection (LOD) and quantification (LOQ) for the calibration curves. The measurements of the samples were conducted with the same spectrophotometer and identical settings. Methanol was used for the dilution of the samples so that they could remain within the linearity range of the method. Complete spectra of the samples were recorded, but for the solubility determination, the absorbance values at a specific analytical wavelength were considered. These values were combined with the corresponding regression equations of the calibration curves and served for the calculation of the concentration of the three phenolic acids in the studied samples. The densities of such samples were also measured, and for this task 1 mL of each sample was weighed to a precision of 0.1 mg using an AS 110 R2.PLUS analytical balance from […] (Radom, Poland). The obtained densities enabled the calculation of mole fractions of CAF, SYR, and COU dissolved in the studied DESs. For each considered system, three distinct measurements were conducted, and the results were averaged.

[2] = Shake-flask solubility with spectrophotometric measurement in aqueous DES mixtures; format: physicochemical; conditions: Bet – GLY 1:2 + water
Experimental: as §1

Mole fraction solubility ([1]; neat DES Bet - DEG, HBA:HBD molar ratio 1:1, 25 °C): 0.0490±0.0005 mole fraction
Mole fraction solubility ([1]; neat DES Bet - DEG, HBA:HBD molar ratio 1:2, 25 °C): 0.0639±0.0004 mole fraction
Mole fraction solubility ([1]; neat DES Bet - DEG, HBA:HBD molar ratio 1:4, 25 °C): 0.0575±0.0005 mole fraction
Mole fraction solubility ([1]; neat DES Bet - ETG, HBA:HBD molar ratio 1:1, 25 °C): 0.0323±0.0004 mole fraction
Mole fraction solubility ([1]; neat DES Bet - ETG, HBA:HBD molar ratio 1:2, 25 °C): 0.0351±0.0002 mole fraction
Mole fraction solubility ([1]; neat DES Bet - GLY, HBA:HBD molar ratio 1:1, 25 °C): 0.0670±0.0005 mole fraction
Mole fraction solubility ([1]; neat DES Bet - GLY, HBA:HBD molar ratio 1:2, 25 °C): 0.0898 mole fraction
Mole fraction solubility ([1]; neat DES Bet - GLY, HBA:HBD molar ratio 1:2, 25 °C, listed as coumaric acid): 0.0898±0.0003 mole fraction
Mole fraction solubility ([1]; neat DES Bet - GLY, HBA:HBD molar ratio 1:4, 25 °C): 0.0739±0.0004 mole fraction
Mole fraction solubility ([1]; neat DES Bet - TEG, HBA:HBD molar ratio 1:1, 25 °C): 0.0648±0.0006 mole fraction
Mole fraction solubility ([1]; neat DES Bet - TEG, HBA:HBD molar ratio 1:2, 25 °C): 0.0894±0.0005 mole fraction
Mole fraction solubility ([1]; neat DES Bet - TEG, HBA:HBD molar ratio 1:4, 25 °C): 0.0778±0.0005 mole fraction
Mole fraction solubility ([1]; neat DES ChCl - DEG, HBA:HBD molar ratio 1:1, 25 °C): 0.0644±0.0004 mole fraction
Mole fraction solubility ([1]; neat DES ChCl - DEG, HBA:HBD molar ratio 1:2, 25 °C): 0.0775±0.0005 mole fraction
Mole fraction solubility ([1]; neat DES ChCl - ETG, HBA:HBD molar ratio 1:1, 25 °C): 0.0387±0.0004 mole fraction
Mole fraction solubility ([1]; neat DES ChCl - ETG, HBA:HBD molar ratio 1:2, 25 °C): 0.0470±0.0003 mole fraction
Mole fraction solubility ([1]; neat DES ChCl - ETG, HBA:HBD molar ratio 1:4, 25 °C): 0.0411±0.0004 mole fraction
Mole fraction solubility ([1]; neat DES ChCl - TEG, HBA:HBD molar ratio 1:2, 25 °C): 0.0997 mole fraction
Mole fraction solubility ([2]; x*DES 0.1, 25°C): 0.0093±0.0001 mole fraction
Mole fraction solubility ([2]; x*DES 0.1, 30°C): 0.0116±0.0001 mole fraction
Mole fraction solubility ([2]; x*DES 0.1, 35°C): 0.0146±0.0001 mole fraction
Mole fraction solubility ([2]; x*DES 0.1, 40°C): 0.0188±0.0001 mole fraction
Mole fraction solubility ([2]; x*DES 0.2, 25°C): 0.0212±0.0003 mole fraction
Mole fraction solubility ([2]; x*DES 0.2, 30°C): 0.0261±0.0002 mole fraction
Mole fraction solubility ([2]; x*DES 0.2, 35°C): 0.0328±0.0003 mole fraction
Mole fraction solubility ([2]; x*DES 0.2, 40°C): 0.0429±0.0003 mole fraction
Mole fraction solubility ([2]; x*DES 0.3, 25°C): 0.0316±0.0004 mole fraction
Mole fraction solubility ([2]; x*DES 0.3, 30°C): 0.0385±0.0003 mole fraction
Mole fraction solubility ([2]; x*DES 0.3, 35°C): 0.0489±0.0004 mole fraction
Mole fraction solubility ([2]; x*DES 0.3, 40°C): 0.0631±0.0003 mole fraction
Mole fraction solubility ([2]; x*DES 0.4, 25°C): 0.0424±0.0005 mole fraction
Mole fraction solubility ([2]; x*DES 0.4, 30°C): 0.0510±0.0004 mole fraction
Mole fraction solubility ([2]; x*DES 0.4, 35°C): 0.0654±0.0004 mole fraction
Mole fraction solubility ([2]; x*DES 0.4, 40°C): 0.0850±0.0007 mole fraction
Mole fraction solubility ([2]; x*DES 0.5, 25°C): 0.0545±0.0003 mole fraction
Mole fraction solubility ([2]; x*DES 0.5, 30°C): 0.0655±0.0004 mole fraction
Mole fraction solubility ([2]; x*DES 0.5, 35°C): 0.0843±0.0006 mole fraction
Mole fraction solubility ([2]; x*DES 0.5, 40°C): 0.1107±0.0012 mole fraction
Mole fraction solubility ([2]; x*DES 0.6, 25°C): 0.0687±0.0004 mole fraction
Mole fraction solubility ([2]; x*DES 0.6, 30°C): 0.0827±0.0006 mole fraction
Mole fraction solubility ([2]; x*DES 0.6, 35°C): 0.1045±0.0009 mole fraction
Mole fraction solubility ([2]; x*DES 0.6, 40°C): 0.1410±0.0021 mole fraction
Mole fraction solubility ([2]; x*DES 0.7, 25°C): 0.0803±0.0006 mole fraction
Mole fraction solubility ([2]; x*DES 0.7, 30°C): 0.0972±0.0008 mole fraction
Mole fraction solubility ([2]; x*DES 0.7, 35°C): 0.1233±0.0020 mole fraction
Mole fraction solubility ([2]; x*DES 0.7, 40°C): 0.1617±0.0014 mole fraction
Mole fraction solubility ([2]; x*DES 0.8, 25°C): 0.0900±0.0007 mole fraction
Mole fraction solubility ([2]; x*DES 0.8, 30°C): 0.1117±0.0011 mole fraction
Mole fraction solubility ([2]; x*DES 0.8, 35°C): 0.1413±0.0023 mole fraction
Mole fraction solubility ([2]; x*DES 0.8, 40°C): 0.1818±0.0015 mole fraction
Compound: O=C(O)C=Cc1ccc(O)cc1 [p-coumaric acid, 4-hydroxycinnamic acid]
Mole fraction solubility ([2]; x*DES 0.9, 25°C): 0.0926 mole fraction and 0.0926±0.0006 mole fraction
